The values below come from patent US11440896B2, “Aminoalkyl compound” (Daiichi Sankyo Company, Limited, priority 2018, dated 2022).

The ED50 is the dose at which the effect has come halfway, by size or by number of responders.

A short description of data set [1]: Hairless mouse skin permeation test. Type of data set: in vitro ADME. Set-up: unit not given here. The conditions noted are these: hairless mouse (HR-1) skin, horizontal diffusion cell, 37° C., donor 3.84 mmol/L in IPM, N=3. As for the experimental part:
(§1) The compounds described in the Examples were dissolved or suspended in isopropyl myristate (IPM) at a concentration of 3.84 mmol/L and the resultant was used.
The frozen skin of a hairless mouse (HR-1 strain, male, 7 weeks old, Japan SLC, Inc.) was thawed at room temperature and, if there was excess subcutaneous fat, the fat was excised with scissors. The horizontal diffusion cell was kept at a constant temperature by flowing water from a thermostatic circulation tank (37° C.) into the external jacket of the cell. The hairless mouse skin was punched out to ϕ24 mm and mounted tightly in the horizontal diffusion cell, 0.9 mL of a receiver solution (McIlvaine buffer containing 40% polyethylene glycol 400) was added to the dermal side (receiver side), and 0.9 mL of a donor solution (the solution or suspension of the compound described in the Example in IPM at a concentration of 3.84 mmol/L) was added to the stratum corneum side (donor side). […]
The compounds in liquids collected in the skin permeation test were quantified. […]
Skin permeation rate (flux, mmol/cm2/hr) and Lag time (hr) were calculated from the slope and X-axis intercept, respectively, of the regression line at steady state from the profile, and used as indicators of skin permeation.

The next data set concerns mice (C57BL/6JJmsSlc). Briefly: Analgesic score by Tail Flick test in mice. The conditions noted are these: Mus musculus, sc, subcutaneous administration in Captisol, dose with an analgesic score of 50%. Type of data set: in vivo. As for the experimental part: A Tail Flick analgesic effect metering device (Ugo Basile) and adult mice (C57BL/6JJmsSlc, Japan SLC, Inc.) were used for evaluation. In the Tail Flick test, thermal stimulation was applied to the tail of each animal, and the latency (in seconds) of escape reflection moving the tail was measured. The maximum heat application time was set to 10 seconds in order to prevent burns.
The compounds described in the Examples were dissolved or suspended in Captisol to prepare test samples. Then, test samples at appropriately selected concentrations were administered subcutaneously to the animals (10 mL/kg), and the latency of escape reflection was measured. The latency of escape reflection before test sample administration was set as [pre-dose measurement], and the analgesic score (%) was calculated as [([measurement]−[pre-dose measurement])/(10−[pre-dose measurement])]×100.
The ED50 was determined by calculating a dose with an analgesic score of 50%.
A general note: Thermal pain tests record how soon the animal reacts.

Data set [2] can be described thus: Dissolution state in isopropyl myristate (IPM). The note with it: concentration of 3.84 mmol/L. It counts as physicochemical. Here is the method:
as §1

With `CN(C)C[C@@H]1COCC[C@H]1c1cccc(O)c1` (racemic) [Example 1, 3-[(3R*,4R*)-3-(Dimethylaminomethyl)tetrahydropyran-4-yl]phenol], the “Flux (skin permeation rate)” value in data set [1] is 35.77. In the data set on mice (C57BL/6JJmsSlc), this compound came in with a median effective dose (ED50) of 1.6 mg/kg.
`CN(C)C[C@@H]1COCC[C@H]1c1cccc(O)c1` (relative stereo) [Example 1, 3-[(3R*,4R*)-3-(Dimethylaminomethyl)tetrahydropyran-4-yl]phenol]: the “Dissolution state in IPM” value in data set [2] is recorded as “Dissolved”.
Turning to `CN(C)C[C@@H]1CCCC[C@H]1c1cccc(O)c1` [Faxeladol], in data set [1], the “Flux (skin permeation rate)” value came to 17.14. The “Dissolution state in IPM” value in data set [2] was “Suspended”. For the same compound, in the data set with mice (C57BL/6JJmsSlc), the 50% effect level (ED50) was put at a dose of 2.7 mg/kg.
